Test results as given in ChEMBL document CHEMBL3797079, “Synergistic reduction of HIV-1 infectivity by 5-azacytidine and inhibitors of ribonucleotide reductase” (Bioorg Med Chem, 2016).
Active and inactive are the calls of the source. The rule behind the calls is not given here.

Legend:
[1] = tested on: Human immunodeficiency virus 1; assay: Antiviral activity against VSV-G pseudotyped HIV-1 NL4-3 infected in human U373-MAGI cells assessed as reduction in U5-gag level at 50 or 100 nM measured at 72 hrs post infection by qPCR method; type: functional, organism-based
[2] = tested on: Human immunodeficiency virus 1; assay: Antiviral activity against VSV-G pseudotyped HIV-1 NL4-3 infected in human U373-MAGI cells assessed as reduction in U5-gag level at 5 to 200 nM measured at 6 to 12 hrs post infection by qPCR method; type: functional, organism-based
[3] = tested on: Human immunodeficiency virus 1; assay: Antiviral activity against VSV-G pseudotyped HIV-1 NL4-3 infected in human U373-MAGI cells assessed as reduction in gag level at 50 or 100 nM measured at 72 hrs post infection by qPCR method; type: functional, organism-based
[4] = tested on: Human immunodeficiency virus 1; assay: Antiviral activity against VSV-G pseudotyped HIV-1 NL4-3 infected in human U373-MAGI cells assessed as reduction in gag level at 5 to 200 nM measured at 6 to 12 hrs post infection by qPCR method; type: functional, organism-based
[5] = biological target: Human immunodeficiency virus type 1 reverse transcriptase (Human immunodeficiency virus 1) (UniProt Q72547); assay: Inhibition of HIV-1 reverse transcriptase assessed as inhibition of primer extension using 5' 32P-end-labeled 17-mer DNA/40-mer RNA as primer/template up to 1 mM measured after 5 mins by PAGE analysis

SMILES	Activity [1]	Activity [2]	Activity [3]	Activity [4]	inhibition [5]
Cc1nnc(C(=O)NC(C)(C)c2nc(C(=O)NCc3ccc(F)cc3)c(O)c(=O)n2C)o1	Active	inactive	Active	inactive	–
Nc1ncn([C@@H]2O[C@H](COP(=O)(O)OP(=O)(O)OP(=O)(O)O)[C@@H](O)[C@H]2O)c(=O)n1	–	–	–	–	inactive
